Legend:
sugar beet = assay: Test B pre/postemergence sugar beet; assay type: in vivo, Beta vulgaris
How it was run: (§1)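 Herbicidal effect was estimated by eye on a ten-point control scale after plants spent twelve to sixteen days in a greenhouse following soil or foliar treatment. Foliar sprays targeted plants at one to four leaves; all doses were formulated in a non-phytotoxic solvent with surfactant.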

rape = assay: Test B pre/postemergence rape; assay type: in vivo, Brassica napus
How it was run: as §1

soybean = assay: Test B pre/postemergence soybean; assay type: in vivo, Glycine max
How it was run: as §1

wild oat = assay: Test B pre/postemergence wild oat; assay type: in vivo, Avena fatua
How it was run: as §1

bamyardgrass = assay: Test B flood test barnyardgrass; assay type: in vivo, Echinochloa crus-galli
How it was run: (§2)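 Flood test on plants grown to the 2-leaf stage; treated plants kept in greenhouse twelve to sixteen days, then visually rated against controls on a 0 (no effect) to 10 (complete control) scale.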

wheat = assay: Test B pre/postemergence wheat; assay type: in vivo, Triticum aestivum
How it was run: as §1

smallflower flatsedge = assay: Test B flood test smallflower flatsedge; assay type: in vivo, Cyperus difformis
How it was run: as §2

velvetleaf = assay: Test B pre/postemergence velvetleaf; assay type: in vivo, Abutilon theophrasti
How it was run: as §1

giant foxtail = assay: Test B pre/postemergence giant foxtail; assay type: in vivo, Setaria faberii
How it was run: as §1

morningglory = assay: Test B pre/postemergence morningglory; assay type: in vivo, Ipomoea hederacea
How it was run: as §1

rice = assay: Test B flood test rice; assay type: in vivo, Oryza sativa
How it was run: as §2

duck salad = assay: Test B flood test duck salad; assay type: in vivo, Heteranthera limosa
How it was run: as §2

blackgrass = assay: Test B pre/postemergence blackgrass; assay type: in vivo, Alopecurus myosuroides
How it was run: as §1

purple nutsedge = assay: Test B pre/postemergence purple nutsedge; assay type: in vivo, Cyperus rotundus; conditions: Postemergence
How it was run: as §1

pigweed = assay: Test B pre/postemergence pigweed; assay type: in vivo, Amaranthus retroflexus
How it was run: as §1

bedstraw = assay: Test B pre/postemergence bedstraw; assay type: in vivo, Galium aparine
How it was run: as §1

[1] = Preemergence, Rate 62 g/ha, scale of 0 to 10 where 0 is no effect and 10 is complete control
[2] = Preemergence, Rate 250 g/ha, scale of 0 to 10 where 0 is no effect and 10 is complete control
[3] = Preemergence, Rate 500 g/ha, scale of 0 to 10 where 0 is no effect and 10 is complete control
[4] = Rate 62 g/ha, Postemergence, scale of 0 to 10 where 0 is no effect and 10 is complete control
[5] = Rate 125 g/ha, Postemergence, scale 0 to 10
[6] = Rate 125 g/ha, Preemergence, scale of 0 to 10 where 0 is no effect and 10 is complete control
[7] = Rate 500 g/ha, Postemergence, scale 0 to 10, 0 no effect, 10 complete control
[8] = Rate 62 g/ha, headed Pre-emergence (flood test species), scale 0 to 10 (0 no effect, 10 complete control)
[9] = Rate 125 g/ha, Pre-emergence, flood test species, scale 0 to 10 where 0 is no effect and 10 is complete control
[10] = Rate 250 g/ha, Pre-emergence, flood-test species, scale 0 to 10, 0 is no effect, 10 is complete control
[11] = Rate 500 g/ha, Pre-emergence, flood test species, scale 0 to 10 (0 no effect, 10 complete control)

CC(C)N(C(=O)n1oc(=O)n(-c2cccnc2)c1=O)c1ccccc1 [Compound 235]
Sugarbeets plant response rating (sugar beet; [1]): 0 | Sugarbeets plant response rating (sugar beet; [2]): 0 | Plant response rating, Sugarbeets (sugar beet; [3]): 0 | Sugarbeets plant response rating (sugar beet; [4]): 0 | Sugarbeets plant response rating (sugar beet; [5]): 0 | Sugarbeets plant response rating (sugar beet; [6]): 0 | Plant response rating (0 to 10; 0 is no effect, 10 is complete control), Sugarbeets (sugar beet; Rate 250 g/ha, Postemergence): 0 | Sugarbeets plant response rating (sugar beet; [7]): 0 | Rape plant response rating (rape; [1]): 0 | Rape plant response rating (rape; [2]): 0 | Plant response rating, Rape (rape; [3]): 0 | Rape plant response rating (rape; [4]): 0 | Rape plant response rating (rape; [5]): 0 | Rape plant response rating (rape; [6]): 0 | Plant response rating (0 to 10; 0 is no effect, 10 is complete control), Rape (rape; Rate 250 g/ha, Postemergence): 0 | Rape plant response rating (rape; [7]): 0 | Soybean plant response rating (soybean; [1]): 0 | Soybean plant response rating (soybean; [2]): 0 | Plant response rating, Soybean (soybean; [3]): 0 | Soybean plant response rating (soybean; [4]): 0 | Soybean plant response rating (soybean; [5]): 0 | Soybean plant response rating (soybean; [6]): 0 | Plant response rating (0 to 10; 0 is no effect, 10 is complete control), Soybean (soybean; Rate 250 g/ha, Postemergence): 0 | Soybean plant response rating (soybean; [7]): 0 | Wild oats plant response rating (wild oat; [1]): 0 | Wild oats plant response rating (wild oat; [2]): 0 | Plant response rating, Wild oats (wild oat; [3]): 0 | Wild oats plant response rating (wild oat; [4]): 0 | Wild oats plant response rating (wild oat; [5]): 0 | Wild oats plant response rating (wild oat; [6]): 0 | Plant response rating (0 to 10; 0 is no effect, 10 is complete control), Wild oats (wild oat; Rate 250 g/ha, Postemergence): 0 | Wild oats plant response rating (wild oat; [7]): 0 | Barnyardgrass plant response rating (bamyardgrass; [8]): 0 | Barnyardgrass plant response rating (bamyardgrass; [9]): 0 | Barnyardgrass plant response rating (bamyardgrass; [10]): 0 | Barnyardgrass plant response rating (bamyardgrass; [11]): 0 | Wheat plant response rating (wheat; [1]): 0 | Wheat plant response rating (wheat; [2]): 0 | Plant response rating, Wheat (wheat; [3]): 0 | Wheat plant response rating (wheat; [4]): 0 | Wheat plant response rating (wheat; [5]): 0 | Wheat plant response rating (wheat; [6]): 0 | Plant response rating (0 to 10; 0 is no effect, 10 is complete control), Wheat (wheat; Rate 250 g/ha, Postemergence): 0 | Wheat plant response rating (wheat; [7]): 0 | S. Flatsedge plant response rating (smallflower flatsedge; [8]): 0 | S. Flatsedge plant response rating (smallflower flatsedge; [9]): 0 | S. Flatsedge plant response rating (smallflower flatsedge; [10]): 0 | S. Flatsedge plant response rating (smallflower flatsedge; [11]): 0 | Velvetleaf plant response rating (velvetleaf; [1]): 0 | Velvetleaf plant response rating (velvetleaf; [2]): 0 | Plant response rating, Velvetleaf (velvetleaf; [3]): 0 | Velvetleaf plant response rating (velvetleaf; [4]): 0 | Velvetleaf plant response rating (velvetleaf; [5]): 0 | Velvetleaf plant response rating (velvetleaf; [6]): 0 | Plant response rating (0 to 10; 0 is no effect, 10 is complete control), Velvetleaf (velvetleaf; Rate 250 g/ha, Postemergence): 0 | Velvetleaf plant response rating (velvetleaf; [7]): 0 | Giant foxtail plant response rating (giant foxtail; [1]): 0 | Giant foxtail plant response rating (giant foxtail; [2]): 0 | Plant response rating, Giant foxtail (giant foxtail; [3]): 0 | Giant foxtail plant response rating (giant foxtail; [4]): 0 | Giant foxtail plant response rating (giant foxtail; [5]): 0 | Giant foxtail plant response rating (giant foxtail; [6]): 0 | Plant response rating (0 to 10; 0 is no effect, 10 is complete control), Giant foxtail (giant foxtail; Rate 250 g/ha, Postemergence): 0 | Giant foxtail plant response rating (giant foxtail; [7]): 0 | Morningglory plant response rating (morningglory; [1]): 0 | Morningglory plant response rating (morningglory; [2]): 0 | Plant response rating, Morningglory (morningglory; [3]): 0 | Morningglory plant response rating (morningglory; [4]): 2 | Morningglory plant response rating (morningglory; [5]): 2 | Morningglory plant response rating (morningglory; [6]): 0 | Plant response rating (0 to 10; 0 is no effect, 10 is complete control), Morningglory (morningglory; Rate 250 g/ha, Postemergence): 6 | Morningglory plant response rating (morningglory; [7]): 7 | Rice plant response rating (rice; [8]): 0 | Rice plant response rating (rice; [9]): 0 | Rice plant response rating (rice; [10]): 0 | Rice plant response rating (rice; [11]): 0 | Ducksalad plant response rating (duck salad; [8]): 0 | Ducksalad plant response rating (duck salad; [9]): 0 | Ducksalad plant response rating (duck salad; [10]): 0 | Ducksalad plant response rating (duck salad; [11]): 0 | Blackgrass plant response rating (blackgrass; [1]): 0 | Blackgrass plant response rating (blackgrass; [2]): 0 | Plant response rating, Blackgrass (blackgrass; [3]): 0 | Blackgrass plant response rating (blackgrass; [4]): 0 | Blackgrass plant response rating (blackgrass; [5]): 0 | Blackgrass plant response rating (blackgrass; [6]): 0 | Plant response rating (0 to 10; 0 is no effect, 10 is complete control), Blackgrass (blackgrass; Rate 250 g/ha, Postemergence): 0 | Blackgrass plant response rating (blackgrass; [7]): 0 | Nutsedge plant response rating (purple nutsedge; Rate 62 g/ha, scale of 0 to 10 where 0 is no effect and 10 is complete control): 0 | Nutsedge plant response rating (purple nutsedge; Rate 125 g/ha, scale 0 to 10): 0 | Plant response rating (0 to 10; 0 is no effect, 10 is complete control), Nutsedge (purple nutsedge; Rate 250 g/ha): 0 | Nutsedge plant response rating (purple nutsedge; Rate 500 g/ha, scale 0 to 10, 0 no effect, 10 complete control): 0 | Redroot pigweed plant response rating (pigweed; [1]): 0 | Redroot pigweed plant response rating (pigweed; [2]): 0 | Plant response rating, Redroot pigweed (pigweed; [3]): 0 | Redroot pigweed plant response rating (pigweed; [4]): 0 | Redroot pigweed plant response rating (pigweed; [5]): 0 | Redroot pigweed plant response rating (pigweed; [6]): 0 | Plant response rating (0 to 10; 0 is no effect, 10 is complete control), Redroot pigweed (pigweed; Rate 250 g/ha, Postemergence): 0 | Redroot pigweed plant response rating (pigweed; [7]): 0 | Bedstraw plant response rating (bedstraw; [1]): 0 | Bedstraw plant response rating (bedstraw; [2]): 0 | Plant response rating, Bedstraw (bedstraw; [3]): 0 | Bedstraw plant response rating (bedstraw; [4]): 0 | Bedstraw plant response rating (bedstraw; [5]): 0 | Bedstraw plant response rating (bedstraw; [6]): 0 | Plant response rating (0 to 10; 0 is no effect, 10 is complete control), Bedstraw (bedstraw; Rate 250 g/ha, Postemergence): 0 | Bedstraw plant response rating (bedstraw; [7]): 0
